3 compounds from EPA's ToxValDB 9.5 (doi:10.2903/j.efsa.2020.6230) can be followed below.

One data set has as its system Oncorhynchus mykiss. As to conditions: for LC50: acute, duration: 96 hours, mortality.
Another data set deals with Rattus norvegicus. Conditions: acute; oral; mortality.
For another data set, the system named is Pleurozium sp. As to conditions: acute; duration: 72 hours; growth.
The next data set concerns Aphidius rhopalosiphi. Nature of the data set: LR50; higher = less toxic. As to conditions: not reported; mortality.
A further data set relates to Mus musculus. Conditions: acute; oral; mortality.
The test system of another data set is Tagia sp. Conditions: chronic/long-term; reproduction.
Another data set has as its system Colinus virginianus. As to conditions: acute; oral; mortality.
The next data set deals with Oryctolagus sp. As to conditions: developmental; development.
The test system of another data set is Salmo salar. As to conditions: acute; duration: 96 hours; mortality.
In another data set the test system is Daphnia magna. As to conditions: chronic/long-term; duration: 28 days; reproduction.
The next data set relates to Apis mellifera. Conditions: acute, duration: 48 hours, mortality.
In a further data set the test system is Folsomia candida. As to conditions: chronic/long-term; reproduction.
Another data set relates to Anas platyrhynchos. As to conditions: reproductive.

Values after ≈ are worked out from the molar mass of the structure shown. Some results are limits rather than exact numbers.

What is called LC50 is the concentration lethal to half of the exposed cells or organisms. In the data set with Oncorhynchus mykiss, `O=C1NC(=O)C2CC=CCC12` (configuration not stated) [1,2,3,6-Tetrahydrophthalimide] showed an LC50 above 120 µg/mL. The same compound gave an LD50 in the data set with Rattus norvegicus of at least 1470 mg/kg-day.

`NC(=O)C1CC=CCC1C(=O)O` (configuration not stated) [6-[Hydroxy(imino)methyl]cyclohex-3-ene-1-carboxylic acid] returned an NOEC in the data set on Pleurozium sp. of 32 mg/L. The LC50 in the data set on Oncorhynchus mykiss was above 120 µg/mL.

By NOAEL is commonly meant the highest tested level that showed no adverse finding. For `O=C1C2CC=CCC2C(=O)N1SC(Cl)(Cl)Cl` (configuration not stated) [Captan], the LR50 with Aphidius rhopalosiphi was above 3200 g/ha. In addition, the LD50 in the data set on Mus musculus is 3720 mg/kg-day; with Colinus virginianus it was above 2000 mg/kg-day; in the data set with Apis mellifera (dermal) it was above 200 µg/piece; with Apis mellifera (oral, unspecified) it was above 100 µg/piece. Besides, the NOEC was 7.3 mg/kg with Tagia sp.; 0.2 mg/L in the data set on Oncorhynchus mykiss (chronic/long-term, duration: 95 days, growth); 0.4 mg/L with Daphnia magna; 100 mg/kg with Folsomia candida. For the same compound, the results for the LC50 with Oncorhynchus mykiss and in the data set on Salmo salar were 0.0147 µg/mL (≈ 0.0489 µM) and 0.0913 µg/mL (≈ 0.304 µM), respectively. In the data set with Oryctolagus sp., this compound yielded an NOAEL of 20 mg/kg-day. The NOEL in the data set on Anas platyrhynchos came to 74.4 mg/kg-day.
